Measurements taken from patent publication US20120309677A1, “METHODS FOR REGULATING BLOOD GLUCOSE LEVELS” (Monash University, priority 2010, published 2012).

Key:
[1] = biological target: hMC5R (Homo sapiens, UniProt P33032); conditions: cited from earlier work
[2] = system: Rat L6 skeletal muscle cells; test: Glucose uptake in differentiated L6 cells; type: cell-based; conditions: 100 nM α-MSH and/or 10 nM insulin; FIG. 10
Method: Rat L6 skeletal muscle cells were seeded in 12-well plates and differentiated in myotubes by replacing growth medium (DMEM+10% FBS) with DMEM+2% horse serum. Medium was changed every day for 1 week. Cells were preincubated for 20 min with no glucose medium+0.1% fatty acid-free BSA. 10 nM of insulin and/or 100 nM α-MSH was added to the corresponding wells. Glucose uptake was assessed for 15 min using 2-deoxy-D-[2,6-^3H]glucose (1 mmol/1, 0.5 μCi/ml) in the presence or absence of 10 nM insulin and 100 nM of α-MSH. Radioactivity was measured in cell lysates by liquid scintillation counting.

[3] = α-MSH levels after ip insulin injection; type: in vivo; conditions: POMC-Kir6.2 mutant mice and control littermates; human insulin 1.0 U/kg ip; FIG. 3B
From the text: POMC-mutKIR6.2 mice is a mutant in which all POMC cells lack the capacity to sense glucose due to dysfunctional ATP/K+ channels. Mutants and wild-type littermates were fed a regular diet. Blood glucose and α-MSH samples were taken after ip injection of human insulin (1.0 U/kg). The results are shown in FIG. 3A. **P<0.01 vs baseline value in the respective group by repeated-measures ANOVA. # P<0.01 vs control littermate at the respective point by single measured.

[4] = system: adult monkey pituitaries; test: α-MSH release from halved pituitaries; type: cell-based; conditions: glucose 15 mM, insulin 200 nM, 45 min; FIG. 1A
Method: Adult monkey pituitaries (n=22) were halved and then treated separately with artificial cerebrospinal fluid (aCSF) equilibrated with 95% O2 and 5% CO2 and incubated at 37° C. After 1 hr equilibration period, halves were incubated for 45 min in aCSF (basal period) before being challenged with glucose (Glu): 15 mM, insulin (Ins): 200 nM or Glu+Ins (15 mM+200 nM) treatments for 45 min. […] This was confirmed by measurement of α-MSH in monkey pituitaries by radioimmunoassay after acidic extraction (FIG. 1B).

[5] = Glucose disposal during ipGTT with systemic α-MSH infusion; type: in vivo, mice; conditions: for glucose disposal during ipGTT: systemic infusion (external jugular vein) 1 μg/h
Method: Mice were instrumented with an arterial catheter (carotid artery) to monitor blood pressure (BP), heart rate (HR) and for sampling. At the same time, a venous catheter (jugular vein) was placed to infuse α-MSH (1 μg/h) for 3 h. Blood glucose was measured before and at 10 and 20 mins of α-MSH infusion. After that, mice received an ip glucose injection (GTT, 1 mg/g). Blood glucose levels were measured at 15, 30, 60 and 120 mins after glucose challenge. BP and […] were recorded during whole procedure. The results are shown in FIGS. 5A and 5B. **[…] vs saline infusion. In a further experiment, MC4R activity was blocked using agouti-related peptide (AgRP; 1.0 nmol, 1 μl) administered (by injection to the lateral ventricle) 1 hr before commencement of the α-MSH infusion.

[6] = system: p-AMPK; test: p-AMPK levels in soleus muscles treated in vitro (Western blot); type: cell-based; conditions: lean mice; 1, 10 and 100 nM for 45 min in vitro; FIG. 8
Method: Soleus muscles were dissected from anaesthetised mice. Muscles were incubated with α-MSH (at 1, 10, and 100 nM) for 45 min. After that, muscles were immediately homogenised in cold RIPA lysis buffer. Homogenates were centrifugated and supernatant were collected to measure protein contents ([…]). 50 μg of each sample was loaded on a 10% Tris-Glycine pre-cast gel. A liver protein sample was run as a positive control. The gel was then transferred onto an Immobilon PVDF membrane for 2 h and after blocking for 1 h with 5% milk in TBST, was incubated o/n with anti-p-AMPK antibody (1:1000; Cell Signaling Technology, Inc, Danvers, Mass., United States of America), anti-total AMPK (1:1000, Cell Signaling Technology, Inc), or anti-GAPDH antibody (1:20000). To avoid interferences with total AMPK antibody, membranes were stripped before incubating with this antibody. Goat anti-mouse IgG horseradish peroxidase (1:50000, Santa Cruz Biotechnology, Inc, Santa Cruz, Calif., United States of America) was used as secondary antibody.

[7] = Muscle temperature in sheep during α-MSH infusion; type: in vivo
Method: Four ovariectomised ewes were placed on a diet of temporal food restriction where food was made available between 11:00-16:00 h (as depicted by the grey box in FIGS. 4A and 4B). Animals were exposed to this feeding window for at least 2 weeks prior to experimentation. Then, one week before the onset of experiments, an indwelling cannulae was surgically inserted into the external jugular vein (experiment a) or femoral artery (experiment b). At the same time, a datalogger was implanted into the vastus lateralis muscle of the hindlimb and programmed to read temperature at 15 min intervals. Animals were treated with either α-MSH 100 μg/h (▾ triangles) for experiment a or 1 μg/h for experiment b or saline (800 μl/h, […]). Infusions were carried out between 10:00-19:00 h.

[8] = system: cAMP; test: cAMP levels in muscles after α-MSH infusion (immunoassay); type: in vivo; conditions: control mice; 45 minutes of α-MSH infusion; FIG. 9A
Method: To measure cAMP concentrations and to determine p-AMPK protein expression in muscles, an experiment was conducted according to a similar design to that described in FIG. 5. Muscle tissues were obtained after 45 minutes of initiating α-MSH infusion and 25 minutes of administering glucose injection. cAMP concentration was determined with a direct immunoassay kit (BioVision Research Products, Mountain View, Calif., United States of America). The kit has a cAMP polyclonal antibody onto the plate. cAMP-HRP conjugates directly compete with cAMP from sample binding to the cAMP antibody on the plate. The HRP activity at 450 nm is inversely proportional to the cAMP concentration in samples. White bars: saline infusion, dark bars: α-MSH infusion

[9] = system: p-AMPK; test: p-AMPK protein expression in muscles after α-MSH infusion (Western blot); type: in vivo; conditions: control mice, FIG. 9B
Method: To measure cAMP concentrations and to determine p-AMPK protein expression in muscles, an experiment was conducted according to a similar design to that described in FIG. 5. Muscle tissues were obtained after 45 minutes of initiating α-MSH infusion and 25 minutes of administering glucose injection. cAMP concentration was determined with a direct immunoassay kit (BioVision Research Products, Mountain View, Calif., United States of America). The kit has a cAMP polyclonal antibody onto the plate. cAMP-HRP conjugates directly compete with cAMP from sample binding to the cAMP antibody on the plate. The HRP activity at 450 nm is inversely proportional to the cAMP concentration in samples. White bars: saline infusion, dark bars: α-MSH infusion p-AMPK and total AMPK were determined by Western blot. Results shown in FIG. 9B are expressed as a ratio P/Total AMPK. *P<0.05

[10] = system: soleus muscles; test: Glucose uptake in isolated soleus muscles (2-deoxy-D-[3H]glucose); type: cell-based, mice; conditions: 100 nM, presence and absence of 10 nM insulin
Method: Mice were fasted overnight and soleus muscles were dissected from anaesthetised mice. Muscles were preincubated for 30 min with 1 ml of warmed (30° C.), pregassed (95% O2-5% CO2, pH 7.4), modified Krebs-Henseleit buffer supplemented with 2 mmol/l sodium pyruvate, 8 mmol/l mannitol, and 0.1% wt/vol BSA and were then incubated with or without 10 nM insulin, α-MSH (100 nM) or α-MSH plus insulin (100 nM+10 nM) for 20 min. Glucose uptake was assessed for 10 min using 2-deoxy-D-[2,6-^3H]glucose (1 mmol/1, 0.5 μCi/ml) in the presence or absence of 10 nM insulin. Radioactivity was measured in muscle lysates by liquid scintillation counting.

[11] = system: skeletal muscle cells; test: Glucose uptake in skeletal muscle cells with MC5R agonist; type: cell-based

Sequence of hMC5R (P33032 whole entry): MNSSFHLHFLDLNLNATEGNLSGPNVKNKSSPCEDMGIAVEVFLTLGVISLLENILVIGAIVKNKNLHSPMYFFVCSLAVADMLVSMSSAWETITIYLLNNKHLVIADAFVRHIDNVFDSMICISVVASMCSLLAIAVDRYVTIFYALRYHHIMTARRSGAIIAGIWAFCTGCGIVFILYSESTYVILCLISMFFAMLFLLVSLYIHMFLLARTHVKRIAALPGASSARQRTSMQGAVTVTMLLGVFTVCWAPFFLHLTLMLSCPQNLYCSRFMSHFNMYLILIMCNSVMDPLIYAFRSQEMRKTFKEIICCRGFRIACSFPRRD

In the case of “Ac-Nle-c[Asp-Hyp-D-Nal(2′)-Arg-Trp-Lys]-NH2 [PG-911]”, the EC50 [1] is listed as 0.031 nM.
For insulin, the “glucose uptake by rat L6 cells” value [2] was “increases in glucose uptake”, the “α-MSH levels in response to insulin” value [3] was “do not change” and the “α-MSH release from pituitaries” value [4] was “stimulate α-MSH release”.
With “agouti-related peptide (SSRRCVRLHESCLGQQVPCCDPCATCYCRFFNAFCYCRKLGTAMNPCSRT; UniProt O00253 83-132, looked up) [AgRP, reference compound]” the “effect on the response (increased glucose disposal) to α-MSH infusion” value ([5]; AgRP 1.0 nmol to lateral ventricle 1 hr before α-MSH infusion, to block MC4R, FIG. 5C) was “does not prevent the response”.
For “α-melanocyte stimulating hormone (SYSMEHFRWGKPV) [α-MSH, native peptide; native agonist for the type 1, 3, 4 and 5 melanocortin receptors]”, the “glucose uptake by rat L6 cells” value [2] was “increases in glucose uptake”, the p-AMPK muscle levels [6] was “dose-dependent increase of p-AMPK muscle levels” and the muscle temperature ([7]; direct infusion into femoral artery, 1 μg/h, FIG. 4B) was “causes an increase in muscle temperature”. For the same substance, the post-prandial muscle temperature ([7]; systemic infusion (external jugular vein), 100 μg/h, FIG. 4A) was “increases post-prandial muscle temperature”, the “cAMP levels in muscles” value [8] was “increase of cAMP levels” and the “p-AMPK protein expression in muscles (ratio P/Total AMPK)” value [9] was “increased”. The “response to α-MSH infusion” value ([5]; MC4R KO mice, data not shown) was “intact response”, the “glucose disposal during ipGTT” value ([5]; control mice, FIG. 5A) was “increases glucose disposal” and the “glucose disposal during ipGTT” value ([5]; obese (DIO) mice, FIG. 5B) was “does not increase glucose disposal”. For the same substance, the “glucose uptake in soleus muscles” value ([10]; control mice, FIG. 6A) was “increases glucose uptake” and the “glucose uptake in soleus muscles” value ([10]; obese mice, FIG. 6B) was “does not increase glucose uptake”.
With “Ac-Nle-c[Asp-Pro-D-Nal(2′)-Arg-Trp-Lys]-NH2 (XDPXRWK; Ac, amide, cyclic lactam, Nle, D-Nal(2'); PG-901)” the “increases of glucose uptake in skeletal muscle cells” value ([11]; 1 nM and 5 nM amounts, FIG. 5D) was 30-40%, the “effect of an MC3R and MC4R antagonist on the increase of glucose uptake” value ([11]; 1 nM and 5 nM amounts, data not shown) was “unaffected by the presence of an MC3R and MC4R antagonist” and the “glucose uptake in muscle cells” value ([11]; FIG. 5D) was “increases glucose uptake in muscle cells”.
